Laboratory results: patent US4758580A, “Inhibiting growth of tumors with certain substituted phenoxy dimethyl alkanoic acids, esters or salts” (Yamanouchi Pharmaceutical Co., Ltd., priority 1985, dated 1988)
In brackets after ≈: the same amount, converted by molar mass.

What was measured:
Ehrlich (carcinoma) = assay: In vitro cytotoxicity against mouse tumor cells, Ehrlich; format: cell-based; details: 72 h, Ehrlich (carcinoma), 3 days, 37° C., trypan blue, read-out: IC50
Experimental: A suspension of cells in a culture medium was transferred into wells in a microplate in an amount of 1×10^5 cells/wall. Test sample diluted with a culture medium was added to the suspension in each well, and the mixture was incubated on the medium at 37° C. for 3 days in atmosphere of air containing 5% carbon dioxide. Thereafter, the incubated cells were recovered from the microplate and the number of live cells was counted by the dye exclusion test using a 0.5% solution of trypan blue and by using a hemocytomer.

MM-46 ascites tumor = assay: Anti-tumor test against mice mammary cancer MM-46 ascites tumor; format: in vivo, C3 H/He/CRJ mice
Experimental: MM-46 tumor cells, 1×10^6, on Day 7 after intraperitoneal transplantation to C3 H/He/CRJ mice (5 week age, male) of 10 mice each being grouped in one. The active component was intraperitoneally administered in a definite dose 24 hours after the transplantation according to the schedule shown in Table 5. An effect of tumor growth inhibition was evaluated by a percentage of the median survival time of the administered group versus that of the control group, according to the following equation.
T: median survival day of the administered group
C: median survival day of the control group

Ehrlich solid tumor = assay: Anti-tumor test against Ehrlich solid tumor; format: in vivo, ddY/SLC mice
Experimental: Ehrlich tumor cells, 2×10^6, on Day 7 after intraperitoneal transplantation to ddY/SLC mice were subcutaneously transplanted in the left abdomen of ddY/SLC mice (5 week age, male), 10 each grouped into one. The active component was intraperitoneally or orally administered in a definite dose 24 hours after the transplantation, according to the schedule shown in Table 1 (A), (B) or (C). An effect of inhibiting growth of tumor was compared, by measuring the long diameter and short diameter of the tumor on 14, 20 and 21 Days after the transplantation, calculating the tumor size (mm^2) and determining a tumor growth inhibition rate of the group administered with the active component to the control group according to the following equation:
Growth inhibition rate (%)=(C-T)/C×100
T: means tumor size (mm^2) in the active component-administered group
C: mean tumor size (mm^2) in the control group

ACHN (kidney cancer) = assay: In vitro cytotoxicity against human tumor cells, ACHN; format: cell-based; details: 72 h, 3 days, 37° C., crystalviolet, read-out: IC50
Experimental: (§1) A suspension of cells in a culture medium was transferred into wells in a microplate in an amount of 5×10^4 cells/well. Test sample diluted with a culture medium was added to the suspension in each well, and the mixture was incubated at 37° C. for 3 days in an atmosphere of air containing 5% carbon dioxide. After skimming, sticking cells were dyed which crystalviolet for 10 minutes. After washing with water, 1% sodium lauryl sulfate solution was added to each well, and the absrobancy (optical density) at […] was measured. "% inhibition" was calculated from the following equation. [formula]

[1] = system: KB (nasal cavity & pharynx cancer); assay: In vitro cytotoxicity against human tumor cells, KB; format: cell-based; details: 72 h, KB, 3 days, 37° C., crystalviolet, read-out: IC50
Experimental: as §1

[2] = system: liver cancer (MH-134) cells; assay: Inhibition of spontaneous metastasis (to the lymph node) of liver cancer (MH-134) cells in mice; format: in vivo, C3 H/He/SLC mice; details: 20th day
Experimental: (a) Inhibition of spontaneous metastasis (to the lymph node) of liver cancer (MH-134) cells in mice
MH-134 tumor cells, 1×10^6, on Day 7 after intraperitoneal transplantation to C3 H/He/SLC mice were transplanted to the right leg. On the 11th day after the transplantation, the right leg portion wherein the cancer cells were transplanted were cut off. The test compounds were administered orally in a definite dose 24 hours after the transplantation. In order to confirm metastasis-inhibiting effect, on 20th day of the transplantation the mice were anatomised to observe the metastasis to the lymph node in the inguinal portion. [formula] Further, the weight of the lymph node metastasis tumor in the inguinal portion of anatomised mice was measured. [formula]

Hela (uterine cancer) = assay: In vitro cytotoxicity against human tumor cells, Hela; format: cell-based; details: 72 h, 3 days, 37° C., crystalviolet
Experimental: as §1

[3] = Toxicity test (acute, oral); details: mouse, in vivo, ddY mice, male
Experimental: The active component was orally administered to ddY mice (mean body weight of 35 g, male). No example of death was noted up to the dose of 5,000 mg/kg. Accordingly, the acute toxicity of Compound B is greater than 5,000 mg/kg. (Effects)

Bowes (melanoma) = assay: In vitro cytotoxicity against human tumor cells, Bowes; format: cell-based; details: 72 h, Bowes, 3 days, 37° C., crystalviolet, read-out: IC50
Experimental: as §1

[4] = 6.25 mg/kg i.p., 1, 2, 3, 4 and 6 Days
[5] = 12.5 mg/kg i.p., 1, 2, 3, 4 and 6 Days
[6] = 25 mg/kg i.p., 1, 2, 3, 4 and 6 Days
[7] = 50 mg/kg i.p., 1, 2, 3, 4 and 6 Days
[8] = 100 mg/kg i.p., 1, 2, 3, 4 and 6 Days
[9] = 200 mg/kg i.p., 1, 2, 3, 4 and 6 Days
[10] = Day 14, 60 mg/kg i.p., Days 1, 2, 3, 4, 7, 8, 10 & 13
[11] = Day 14, 100 mg/kg i.p., Days 1, 3, 7, 10, 13 & 14
[12] = Day 14, 200 mg/kg p.o., Days 1, 2, 3, 4, 7, 8, 10 & 13
[13] = Day 21, 60 mg/kg i.p., Days 1, 2, 3, 4, 7, 8, 10 & 13
[14] = Day 21, 100 mg/kg i.p., Days 1, 3, 7, 10, 13 & 14
[15] = Day 21, 200 mg/kg p.o., Days 1, 2, 3, 4, 7, 8, 10 & 13
[16] = 100 mg/kg oral, 1, 3, 5, 7, 9, 11, 13 and 15 days
[17] = 200 mg/kg oral, 1, 3, 5, 7, 9, 11, 13 and 15 days
[18] = 400 mg/kg oral, 1, 3, 5, 7, 9, 11, 13 and 15 days

For `CCOC(=O)C(C)(C)CCCCOc1ccc(OCCCCCn2ccnc2)cc1` [Compound B], the IC50 (Ehrlich (carcinoma)) was 0.5 µg/mL (≈ 1.2 µM), the “Median Survival Day” value (MM-46 ascites tumor; [4]) was 7.0 days and the “Survivors (90 days)” value (MM-46 ascites tumor; [4]) was 0/10. For the same compound, the “T/C (median survival)” value (MM-46 ascites tumor; [4]) was 93.3%, the “Median Survival Day” value (MM-46 ascites tumor; [5]) was 7.0 days and the “Survivors (90 days)” value (MM-46 ascites tumor; [5]) was 0/10. For the same compound, the “T/C (median survival)” value (MM-46 ascites tumor; [5]) was 93.3%, the “Median Survival Day” value (MM-46 ascites tumor; [6]) was 8.5 days and the “Survivors (90 days)” value (MM-46 ascites tumor; [6]) was 0/10. For the same compound, the “T/C (median survival)” value (MM-46 ascites tumor; [6]) was 113.3%, the “Median Survival Day” value (MM-46 ascites tumor; [7]) was 34.0 days and the “Survivors (90 days)” value (MM-46 ascites tumor; [7]) was 0/10. For the same compound, the “T/C (median survival)” value (MM-46 ascites tumor; [7]) was 453.3%, the “Median Survival Day” value (MM-46 ascites tumor; [8]) was 49.0 days and the “Survivors (90 days)” value (MM-46 ascites tumor; [8]) was 1/10. The “T/C (median survival)” value (MM-46 ascites tumor; [8]) was 653.3%, the “Median Survival Day” value (MM-46 ascites tumor; [9]) was 18.5 days and the “Survivors (90 days)” value (MM-46 ascites tumor; [9]) was 0/10. The “T/C (median survival)” value (MM-46 ascites tumor; [9]) was 246.7%, the “Growth Inhibition Rate” value (Ehrlich solid tumor; [10]) was 25.7% and the “Size of Tumor” value (Ehrlich solid tumor; [10]) was 107.3 ± 54.6 mm^2. For the same compound, the “Growth Inhibition Rate” value (Ehrlich solid tumor; [11]) was 51.4%, the “Size of Tumor” value (Ehrlich solid tumor; [11]) was 70.1 ± 33.8 mm^2 and the “Growth Inhibition Rate” value (Ehrlich solid tumor; [12]) was 66.3%. For the same compound, the “Size of Tumor” value (Ehrlich solid tumor; [12]) was 48.7 ± 44.3 mm^2, the “Growth Inhibition Rate” value (Ehrlich solid tumor; [13]) was 37.0% and the “Size of Tumor” value (Ehrlich solid tumor; [13]) was 323.3 ± 163.4 mm^2. The “Growth Inhibition Rate” value (Ehrlich solid tumor; [14]) was 38.5%, the “Size of Tumor” value (Ehrlich solid tumor; [14]) was 315.3 ± 235.3 mm^2 and the “Growth Inhibition Rate” value (Ehrlich solid tumor; [15]) was 78.7%. For the same compound, the “Size of Tumor” value (Ehrlich solid tumor; [15]) was 109.2 ± 133.5 mm^2, the IC50 (ACHN (kidney cancer)) was 2.3 µg/mL (≈ 5.52 µM) and the IC50 [1] was 1.15 µg/mL (≈ 2.76 µM). The “Growth inhibition of the metastasis tumor” value [2, 16] was 33.8%, the Metastasis-inhibition rate [2, 16] was 8.5% and the “Growth inhibition of the metastasis tumor” value [2, 17] was 79.4%. The Metastasis-inhibition rate [2, 17] was 41.2%, the “Growth inhibition of the metastasis tumor” value [2, 18] was 80.4% and the Metastasis-inhibition rate [2, 18] was 73.9%. The IC50 (Hela (uterine cancer)) was 2.05 µg/mL (≈ 4.92 µM), the LD50 [3] was > 5000 mg/kg and the IC50 (Bowes (melanoma)) was 1 µg/mL (≈ 2.4 µM).
